# Source: article PMC8038501, “Bioactivity-Guided Isolation of Phytochemicals from Vaccinium dunalianum Wight and Their Antioxidant and Enzyme Inhibitory Activities” (Molecules, 2021)
# Marks after values point to notes of the source that are not given here.
# Tests used:
# [1] = target: T1, porcine pancreatic lipase (Sus scrofa, UniProt P00591); assay: pancreatic lipase inhibitory assay (p-nitrophenyl laurate substrate); assay type: biochemical; details: mean ± SD, three replicates; read-out: Enzyme Inhibition IC50 Pancreatic Lipase (converted)
# T1 construct: purchased Sigma-Aldrich (Shanghai, China)
# T1 sequence (P00591 1-450): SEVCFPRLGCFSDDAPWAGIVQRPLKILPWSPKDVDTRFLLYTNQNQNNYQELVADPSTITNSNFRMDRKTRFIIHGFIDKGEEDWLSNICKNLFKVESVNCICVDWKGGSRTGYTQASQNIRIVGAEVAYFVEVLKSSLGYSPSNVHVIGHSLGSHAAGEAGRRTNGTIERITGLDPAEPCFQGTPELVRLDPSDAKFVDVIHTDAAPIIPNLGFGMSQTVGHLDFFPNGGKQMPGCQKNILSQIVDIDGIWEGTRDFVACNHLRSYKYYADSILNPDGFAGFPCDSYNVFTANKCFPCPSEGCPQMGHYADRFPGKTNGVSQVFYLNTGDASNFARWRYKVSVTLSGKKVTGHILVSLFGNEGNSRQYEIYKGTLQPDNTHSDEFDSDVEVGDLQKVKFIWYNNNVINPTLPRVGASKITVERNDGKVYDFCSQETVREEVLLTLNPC
# Method: The pancreatic lipase inhibitory assay was conducted as previously described with some modifications. First, the porcine pancreatic lipase solution was centrifuged to collect the supernatant enzyme at 4000 g for 5 min. The substrate solution was prepared with p-nitrophenyl laurate dissolved in 5 mM sodium acetate (1:100 m/v) and Triton X-100 (1:100 v/v). The substrate solution was placed in boiling water for 2 min to fully dissolve, and then cooled down to room temperature for the enzymatic assay. The sample was dissolved in DMSO (<5% in the final reaction reagents) and diluted with 100 mM Tris-buffer (pH 8.2). Samples of 50, 100, 200, 400, 600, and 800 µg/mL were prepared. Orlistat was used as a positive control. In the enzymatic assay, the test samples (100 µL) were mixed with Tris buffer (400 µL), substrate solution (350 µL), and pancreatic lipase (150 µL). The mixture was then incubated at 37 °C for 2 h and centrifugated at 4000 g for 3 min. The absorbance of the reaction mixture was measured at 400 nm by using a SpectraMax M5 microplate reader. The percent inhibition of pancreatic lipase activity was calculated by Equation (1).
# [2] = DPPH free-radical scavenging assay; details: for Antioxidant Activity DPPH: mean ± SD, three replicates
# Method: The DPPH free radical scavenging activity was carried out by the method previously described. Briefly, 2 mL of DPPH solution (0.1 mmol/L) was mixed with 0.5 mL of sample solutions or Trolox solution (100 μg/mL in methanol). Then, the mixture was incubated for 30 min in the dark at room temperature. Absorbance of the mixture was measured at 517 nm using a SpectraMax M5 microplate reader. DPPH radical scavenging activity of each extract was expressed as nmol Trolox equivalent (TE) per mg of extract (nmol TE/mg extract).
# [3] = Ferric reducing/antioxidant power (FRAP) assay; details: for Antioxidant Activity FRAP: mean ± SD, three replicates
# Method: The FRAP assay was conducted according to the procedure reported with slight modifications. The FRAP reagent was freshly prepared with 300 mM acetate buffer (pH 3.6), 10 mM TPTZ (2,4,6-tripyridyl-s-triazine), and 20 mM FeCl3-6H2O (10:1:1, v/v)]. A 0.5 mL of each sample (100 μg/mL) was mixed with 4.5 mL freshly prepared FRAP reagent. Then, the reaction mixture was incubated at 37 °C in the dark for 10 min. The absorbance of the mixture was recorded at 593 nm against a blank that was prepared using distilled water. Trolox was used as a control. The FRAP values were expressed as nmol Trolox equivalent (TE) per mg of extract (nmol TE/mg extract).
# [4] = ABTS radical scavenging assay; details: for Antioxidant Activity ABTS: mean ± SD, three replicates
# Method: The ABTS assay was performed according to the procedure described earlier. Briefly, 7 mM ABTS was added to 2.5 mM […] and the mixture was allowed to stand in the dark at room temperature for 16 h to obtain the ABTS radical solution. The ABTS solution was diluted with methanol with an absorbance of 0.70 ± 0.02 at 734 nm. After adding the 25 μL extract (100 μg/mL in methanol) to 200 μL ABTS solution, the absorbance was measured after 6 min at 734 nm by using a SpectraMax M5 microplate reader. Results were expressed as nmol Trolox equivalent (TE) per mg of extract (nmol TE/mg extract).
# α-glucosidase = α-glucosidase (Saccharomyces cerevisiae, UniProt P53341); assay: α-glucosidase inhibitory assay (PNPG substrate); assay type: biochemical
# Method: The α-glucosidase inhibitory assay was performed as previously described with slight modifications. A 50 µL sample (20, 50, 100, 200, 400, 600 µg/mL) solution was added to the mixture of the α-glucosidase solution, phosphate buffer (100 µL, pH 6.8), and 50 µL of 10 mM PNPG in a 96-well microplate. Subsequently, the reaction mixture was incubated for 15 min at 37 °C. Then, sodium carbonate (50 µL, 0.2 M) was added to terminate the reaction. A blank was prepared for each sample without enzyme solution to correct the background absorbance (control). The absorbance (A) of the reaction mixture was measured at 405 nm by using a SpectraMax M5 microplate reader (Molecular Devices, Sunnyvale, CA, USA). The inhibitory percentage was determined as follows:Inhibition (%) = [(Acontrol − Asample)/Acontrol] × 100(1)
# ɑ-glucosidase = tested on: ɑ-glucosidase; set-up: method as in PMID 28832228; details: cited from earlier work
# [5] = cited from earlier work
# α-glucosidase, sequence (P53341 whole entry): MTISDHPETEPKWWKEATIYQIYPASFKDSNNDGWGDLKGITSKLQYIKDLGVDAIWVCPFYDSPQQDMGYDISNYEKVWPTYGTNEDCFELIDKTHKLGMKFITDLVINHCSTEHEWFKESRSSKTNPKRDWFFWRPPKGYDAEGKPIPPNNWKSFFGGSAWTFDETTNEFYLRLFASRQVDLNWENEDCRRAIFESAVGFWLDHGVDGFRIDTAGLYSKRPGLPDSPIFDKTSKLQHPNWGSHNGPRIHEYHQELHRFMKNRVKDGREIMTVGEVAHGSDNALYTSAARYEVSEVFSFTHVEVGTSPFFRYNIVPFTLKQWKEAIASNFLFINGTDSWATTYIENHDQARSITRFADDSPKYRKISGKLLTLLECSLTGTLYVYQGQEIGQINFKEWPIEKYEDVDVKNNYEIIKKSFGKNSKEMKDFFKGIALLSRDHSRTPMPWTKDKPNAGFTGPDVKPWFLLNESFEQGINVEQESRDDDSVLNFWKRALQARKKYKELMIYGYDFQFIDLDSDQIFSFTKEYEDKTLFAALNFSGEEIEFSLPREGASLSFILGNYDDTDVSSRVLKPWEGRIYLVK
SMILES,IC50 [1] [µM],Antioxidant Activity DPPH [2],Antioxidant Activity FRAP [3],Antioxidant Activity ABTS [4],α-glucosidase inhibition (in words) (α-glucosidase),ɑ-glucosidase inhibitory activities (reported) (ɑ-glucosidase),effect on antioxidant activity (reported) [5],DPPH ([2]; unit in section 2.5) [nmol TE/g extract],FRAP ([3]; unit in section 2.5) [nmol TE/g extract],ABTS ([4]; unit in section 2.5) [nmol TE/g extract]
"O=C(/C=C/c1ccc(O)c(O)c1)OC[C@H]1O[C@@H](O)[C@H](O)[C@@H](O)[C@@H]1O [Compound 2, 6-O-E-Caffeoyl-D-glucopyranose]",303,1.05 ± 0.11 ^h nmol Trolox equivalent/mg extract,"0.84 ± 0.01 ^e,f nmol Trolox equivalent/mg extract",15.93 ± 1.65 ^ij nmol Trolox equivalent/mg extract,,,,,,
"OC[C@H]1O[C@@H](Oc2ccc(O)cc2)[C@H](O)[C@@H](O)[C@@H]1O [Compound 1, Arbutin]",1290,0.45 ± 0.02 ^e nmol Trolox equivalent/mg extract,0.76 ± 0.01 ^d nmol Trolox equivalent/mg extract,8.38 ± 3.74 ^efg nmol Trolox equivalent/mg extract,relatively weak inhibitory activity,,,,,
"COC(=O)/C=C/c1ccc(O)c(O)c1 [Compound 4, Caffeic acid methyl ester]",1380,0.37 ± 0.01^d nmol Trolox equivalent/mg extract,0.82 ± 0.01 ^e nmol Trolox equivalent/mg extract,3.10 ± 1.07 ^b nmol Trolox equivalent/mg extract,,good ɑ-glucosidase inhibitory activities,,,,
"O=c1c(O[C@@H]2O[C@H](CO)[C@@H](O)[C@H](O)[C@H]2O)c(-c2ccc(O)cc2)oc2cc(O)cc(O)c12 [Compound 9, Kaempferol-3-O-β-D-glucopyranoside]",778,0.35 ± 0.01 ^cd nmol Trolox equivalent/mg extract,,6.38 ± 0.34 ^e nmol Trolox equivalent/mg extract,relatively weak inhibitory activity,,positive effect on antioxidant activity,,,
"O=C(/C=C/c1ccc(O)c(O)c1)OC[C@H]1O[C@@H](Oc2ccc(O)cc2)[C@H](O)[C@@H](O)[C@@H]1O [Compound 7, 6′-O-Caffeoylarbutin]",225,1.21 ± 0.43 ^c nmol Trolox equivalent/mg extract,0.87 ± 0.01 ^f nmol Trolox equivalent/mg extract,16.96 ± 0.95 ^j nmol Trolox equivalent/mg extract,,,,1.21 ± 0.43,0.87 ± 0.01,16.96 ± 0.95
"O=c1c(OC2O[C@H](CO)[C@@H](O)[C@@H]2O)c(-c2ccc(O)c(O)c2)oc2cc(O)cc(O)c12 (stereo in doubt) [Compound 5, Quercetin-3-O-arabinofuranoside]",759,0.81 ± 0.17 ^h nmol Trolox equivalent/mg extract,,,relatively weak inhibitory activity,,positive effect on antioxidant activity,,,
"O=C(O)/C=C/c1ccc(O)c(O)c1 [Compound 3, Caffeic acid]",1310,0.39 ± 0.05 ^de nmol Trolox equivalent/mg extract,0.85 ± 0.01 ^ef nmol Trolox equivalent/mg extract,3.86 ± 0.48 ^b nmol Trolox equivalent/mg extract,,,positive effect on antioxidant activity,,,
"O=C(/C=C/c1ccc(O)cc1)OC[C@H]1O[C@@H](Oc2ccc(O)cc2)[C@H](O)[C@@H](O)[C@@H]1O [Compound 8, Robustaside A]",741,0.41 ± 0.06 ^e nmol Trolox equivalent/mg extract,0.49 ± 0.01 ^b nmol Trolox equivalent/mg extract,4.71 ± 0.23 ^c nmol Trolox equivalent/mg extract,relatively weak inhibitory activity,,,,,
"O=C(O)c1ccc(O)cc1 [Compound 10, p-Hydroxybenzoic acid]",2220,1.12 ± 0.23 ^h nmol Trolox equivalent/mg extract,0.87 ± 0.01 ^f nmol Trolox equivalent/mg extract,,relatively weak inhibitory activity,,,,,
"CCOC(=O)/C=C/c1ccc(O)c(O)c1 [Compound 6, Caffeic acid ethyl ester]",1240,0.42 ± 0.03 ^e nmol Trolox equivalent/mg extract,0.76 ± 0.01 ^d nmol Trolox equivalent/mg extract,4.16 ± 0.25 ^b nmol Trolox equivalent/mg extract,relatively weak inhibitory activity,good ɑ-glucosidase inhibitory activities,,,,
